4 compounds from publication PMC12086749, “Design, synthesis, and evaluation of peptide‐imidazo[1,2‐a]pyrazine bioconjugates as potential bivalent inhibitors of the VirB11 ATPase HP0525” (Journal of Peptide Science, 2021) can be followed below.

The test addresses VirB11 ATPase HP0525 (Helicobacter pylori, UniProt Q7BK04). Briefly: in vitro ATPase colorimetric assay of HP0525. It counts as biochemical. The following applies: for inhibition of HP0525 (in words): qualitative statement. As to the method:
The HP0525 protein was produced in the E. coli strain BL21 Star (DE3) (Invitrogen) as described previously.[39] The protein concentration was estimated spectroscopically using a NanoDrop (Thermo Scientific) and a calculated extinction coefficient at 280 nm, based on the amino acid composition. The ATPase activity of HP0525 was measured, with and without a specific amount of compound present, using an in vitro ATPase colorimetric assay kit (Innova Biosciences). The assay was performed in 96‐well ELISA microplates (Greiner Bio‐One), using a multipipette/robot.
A volume of 49 μl of a substrate/buffer solution (200 mM tris(hydroxymethyl)aminomethane [TRIS], pH 7.5; 5 mM MgCl2; 250 μM ATP; and 10% DMSO) was added to each assigned well, followed by the addition of 1 μl of compound (at 0.5; 5 or 50 mM to achieve the final concentrations of 5; 50 and 500 μM in the reaction, respectively) in DMSO (or 1 μl DMSO to controls). The solutions were mixed carefully by pipetting. The reaction was started by the addition of 50 μl of 0.106 μM HP0525 to each well (except the negative control, see text below), and the reaction plate was directly transferred to 37°C for 30 min of incubation. The reaction was stopped by the addition of the gold mix according to the standard protocol of the kit. The absorbance at 620 nm was measured after 30 min at RT. For each compound, the percentage of absorbance relative to non‐inhibited HP0525 was calculated, after subtracting the absorbance value of the negative control. In the negative control, the protein was added after the gold mix, as described in the standard protocol of the kit, which when used as a blank corrects for all free Pi not produced by the enzyme during the 30 min incubation at 37°C. A known inhibitor of HP0525 (CHIR02)[26] was used as a control inhibitor. All measurements were made in duplicate.
Each compound was screened on three separate plates, and each plate was read twice, and a mean was calculated for each concentration. The data were normalized by subtracting the negative control (0% active) and relating it to the positive control (100% active). The software GraphPad Prism 5 was used to generate two dose–response curves (Log [inhibitor] vs. normalized response [standard and variable slope]), and the IC50 values were calculated from each.

In general, IC50 refers to the point on the concentration scale where inhibition reaches its midpoint. A low value points to greater potency in that assay.

VirB11 ATPase HP0525, sequence (Q7BK04 entry or part of it): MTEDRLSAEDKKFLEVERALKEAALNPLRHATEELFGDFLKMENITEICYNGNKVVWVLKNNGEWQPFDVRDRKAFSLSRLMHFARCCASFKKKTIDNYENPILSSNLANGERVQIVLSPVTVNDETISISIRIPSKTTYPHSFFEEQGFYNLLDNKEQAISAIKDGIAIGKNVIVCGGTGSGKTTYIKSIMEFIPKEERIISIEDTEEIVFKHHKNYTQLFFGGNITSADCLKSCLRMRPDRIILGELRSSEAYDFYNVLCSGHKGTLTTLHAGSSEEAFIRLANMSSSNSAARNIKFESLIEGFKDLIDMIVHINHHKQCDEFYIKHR

`C=CCOCCOC(=O)Nc1ccc(S(=O)(=O)Nc2nccn3cc(-c4ccc5ccccc5c4)nc23)cc1` [Compound 15]: the IC50 is 46 µM and the “inhibition of HP0525 (in words)” value is recorded as “improved inhibition”.
Take `C#CCOCCOC(=O)Nc1ccc(S(=O)(=O)Nc2nccn3cc(-c4ccc5ccccc5c4)nc23)cc1` [Compound 16]: 61 µM corresponded to half-maximal inhibition (IC50) and the “inhibition of HP0525 (in words)” value is given as “improved inhibition”.
The like results for `O=C(CCN1C(=O)C=CC1=O)NCCOCCOC(=O)Nc1ccc(S(=O)(=O)Nc2nccn3cc(-c4ccc5ccccc5c4)nc23)cc1` [Compound 17] were, in that order, 18 µM and “improved inhibition”.
Consider `NCCOCCOC(=O)Nc1ccc(S(=O)(=O)Nc2nccn3cc(-c4ccc5ccccc5c4)nc23)cc1` [Compound 27], for which the half-inhibitory concentration (IC50) came to 137 µM and the “inhibition of HP0525 (in words)” value is recorded as “poor inhibition”.
